{"source": "patent US6162805A", "about": "“Use of an NK-1 receptor antagonist and an SSRI for treating obesity” (Merck Sharp & Dohme Limited, priority 1997, dated 2000)", "key": {"[1]": {"test_system": "foot tapping in gerbils", "assay": "Gerbil Foot-Tapping", "type": "in vivo, Mongolian gerbil", "settings": "Meriones unguiculatus, iv, i.v.", "excerpt": "CNS-penetrant NK-1 receptor antagonists for use in the present invention can be identified by their ability to inhibit foot tapping in gerbils induced by anxiogenic agents (such as pentagastrin) or central infusion of NK-1 receptor agonists such as GR73632, or caused by aversive stimulation such as foot shock or single housing, based on the method of Rupniak & Williams, Eur. J. Pharmacol., 1994, 265, 179. […] Alternatively, test compounds may be administered orally or by subcutaneous or intraperitoneal routes. A skin incision is then made in the midline of the scalp to expose the skull. An anxiogenic agent (e.g. pentagastrin) or a selective NK-1 receptor agonist (e.g. GR73632 ([…] ]-substance P-(7-11)) is infused directly into the cerebral ventricles (e.g. 3 pmol in 5 μl i.c.v., depending on test substance) by vertical insertion of a cuffed 27 gauge needle to a depth of 4.5 mm below bregma. The scalp incision is closed and the animal allowed to recover from anaesthesia in a clear perspex observation box (approximately 25 cm×20 cm×20 cm). The duration and/or intensity of hind foot tapping is then recorded continuously for approximately 5 minutes. Alternatively, the ability of test compounds to inhibit foot tapping evoked by aversive stimulation, such as foot shock or single housing, may be studied using a similar method of quantification."}, "[2]": {"test_system": "cisplatin-induced emesis in ferrets", "assay": "Ferret Emesis (cisplatin-induced)", "type": "in vivo", "settings": "Mustela putorius, po, read-out: ferret emesis ID90", "protocol": "Ten minutes later they are fed with approximately 100 g of tinned cat food. At 60 minutes following oral dosing, cisplatin (10 mg/kg) is given i.v. via a jugular vein catheter inserted under a brief period of halothane anaesthesia. The catheter is then removed, the jugular vein ligated and the skin incision closed. The ferrets recover rapidly from the anaesthetic and are mobile within 10-20 minutes. The animals are observed continuously during recovery from the anaesthetic and for 4 hours following the cisplatin injection, after which time the animals are killed humanely. The numbers of retches and vomits occurring during the 4 hours after cisplatin administration are recorded by trained observers."}, "[3]": {"test_system": "separation-induced vocalisations in guinea-pig pups", "assay": "Separation-Induced Vocalisation in guinea-pig pups", "type": "in vivo", "settings": "for ED50: Cavia porcellus, read-out: guinea-pig vocalisation ID50; for attenuation of separation-induced vocalisations compared with baseline: 30 minutes previously", "excerpt": "Male and female guinea-pigs pups are housed in family groups with their mothers and littermates throughout the study. Experiments are commenced […] when the pups are at least 2 weeks old. Before entering an experiment, the pups may be screened to ensure that a vigorous vocalisation response is reproducibly elicited following maternal separation. The pups are placed individually in an observation cage (approximately 55 cm×39 cm×19 cm) in a room physically isolated from the home cage for approximately 15 minutes and the duration and/or number of vocalisation during this baseline period is recorded. […] On test days each pup receives an oral dose or an s.c. or i.p. injection of test compound or vehicle and is then immediately returned to the home cage with its mother and siblings for at least 30 to 60 minutes (or for up to 4 hours following an oral dose, dependent upon the oral pharmacokinetics of the test compound) before social isolation for 15 minutes as described above. The duration and/or number of vocalisation on drug treatment days may be expressed as a percentage of the pre-treatment baseline value for each animal or compared with values obtained in vehicle-treated animals. The same subjects may be retested once weekly for up to 6 weeks. Between 6 and 8 animals receive each test compound at each dose tested.\n(v) Determine activity of compounds in assays sensitive to conventional serotonergic drugs (inhibition of pharmacologically evoked foot tapping in gerbils and/or inhibition of distress vocalisations in guinea-pig pups (Assay 4))."}, "[4]": {"settings": "5 min, read-out: gerbil foot-tapping (5 mins.) ID50"}, "[5]": {"settings": "24 hrs., read-out: gerbil foot-tapping (24 hrs.) ID50"}}, "note": "Like-named read-outs stand apart in the source and are kept apart here.", "data": [{"smiles": "C[C@@H](O[C@H]1OCCN(Cc2n[nH]c(=O)[nH]2)[C@H]1c1ccc(F)cc1)c1cc(C(F)(F)F)cc(C(F)(F)F)c1", "note": "[2-(R)-(1-(R)-(3,5-bis(trifluoromethyl)phenyl)-ethoxy)-3-(S)-(4-fluorophenyl)-4-(3-(5-oxo-1H,4H-1,2,4-triazolo)methyl)-morpholine]", "values": [{"measurement": "ED50", "setting": "[1]; [4]", "value": 0.36, "unit": "mg/kg"}, {"measurement": "ED50", "setting": "[1]; [5]", "value": 0.33, "unit": "mg/kg"}, {"measurement": "ED90", "setting": "[2]", "value": "< 3", "unit": "mg/kg"}, {"measurement": "ED50", "setting": "[3]; po, 4 hrs. pretreatment", "value": 0.73, "unit": "mg/kg"}]}, {"smiles": "CNCCC(Oc1ccc(C(F)(F)F)cc1)c1ccccc1", "note": "(stereo not shown) [fluoxetine, reference compound]", "values": [{"measurement": "attenuation of separation-induced vocalisations compared with baseline", "setting": "[3]; 2 mg/kg i.p. alone", "value": "approximately 25%"}]}, {"smiles": "C[C@@H](O[C@H]1OCCN(Cc2nn[nH]c2CN(C)C)[C@H]1c1ccccc1)c1cc(C(F)(F)F)cc(C(F)(F)F)c1", "note": "[Test Compound A, 2-(R)-(1-(R)-(3,5-bis(trifluoromethyl)phenyl)ethoxy)-4-(5-(dimethylamino)methyl-1,2,3-triazol-4-yl)methyl-3-(S)-phenylmorpholine]", "values": [{"measurement": "ED50", "setting": "[1]; [4]", "value": 0.12, "unit": "mg/kg"}, {"measurement": "ED50", "setting": "[1]; [5]", "value": 0.17, "unit": "mg/kg"}, {"measurement": "attenuation of separation-induced vocalisations compared with baseline", "setting": "[3]; 0.25 mg/kg s.c. alone", "value": "approximately 25%"}, {"measurement": "ED50", "setting": "[3]; sc", "value": 0.5, "unit": "mg/kg"}]}, {"smiles": "C[C@@H](O[C@@H]1OCCN(Cc2nn[nH]c2CN(C)C)[C@@H]1c1ccccc1)c1cc(C(F)(F)F)cc(C(F)(F)F)c1", "note": "[Test Compound B, 2-(S)-(1-(R)-(3,5-bis(trifluoromethyl)phenyl)ethoxy)-4-(5-(dimethylamino)methyl-1,2,3-triazol-4-yl)methyl-3-(R)-phenylmorpholine, reference compound]", "values": [{"measurement": "attenuation of separation-induced vocalisations, administered alone", "setting": "[3]; 0.25 mg/kg s.c. alone (FIG. 1)", "value": "failure of the less active enantiomer, Test Compound B (0.25 mg/kg s.c.) to attenuate separation-induced vocalisations when administered alone"}]}]}
